The numbers were not newly measured in patent EP0408749A1, “DERIVATIVES OF 3,18-DIHYDROXY-9,13-EPOXYLABDANE, METHOD OF OBTAINING THEM AND A HEMOSTATIC PHARMACEUTICAL PREPARATION BASED THEREON” (TASHKENTSKY GOSUDARSTVENNY UNIVERSITET IMENI V.I. LENINA, priority 1988, dated 1990), which cites them from elsewhere.

This series has as its system hemostatic effect. Conditions: prior art statement; cited from earlier work.

On to “3, 15, 16, 18-tetrahydroxy-9,13-epoxylabdane”, for which the hemostatic effect entry is given as “weak”.
